Assay results published in publication PMC2992351 (ACS medicinal chemistry letters, 2010).

Biological target: Grb2 SH2 domain (Homo sapiens, UniProt P62993)
Assay: Isothermal titration calorimetry
Format: binding
Details: for Ka / ΔG^o / ΔH^o / ΔS^o / −TΔS^o: ITC at 298 K, average of at least two experiments; for Ka: association constant

Sequence of Grb2 SH2 domain (P62993 60-152 limits assumed): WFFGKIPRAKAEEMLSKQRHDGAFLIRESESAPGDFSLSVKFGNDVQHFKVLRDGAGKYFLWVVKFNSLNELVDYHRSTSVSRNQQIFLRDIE

Ka	ΔG^o	ΔH^o	ΔS^o	−TΔS^o	fold lower affinity than acyclic control 4 (ITC, macrocycle vs its acyclic control)	difference in binding enthalpies of 7 and 8 (ITC, 7 vs 8)	fold greater affinity than linear control 8 (ITC, macrocycle 7 vs linear control 8)	Substance
(4.7 ± 0.11) × 10^4 M^−1	-6.4 ± 0.01 kcal/mol	-3.5 ± 0.26 kcal/mol	9.8 ± 0.20 cal mol^−1K^−1	-2.9 ± 0.06 kcal/mol	about 10 fold	–	–	pYVNG (head to tail) [compound 1]
(2.3 ± 0.21) × 10^6 M^−1	-8.7 ± 0.06 kcal/mol	-4.3 ± 0.32 kcal/mol	14.8 ± 0.54 cal mol^−1K^−1	-4.4 ± 0.16 kcal/mol	–	–	–	pYVNV (head to tail) [compound 2]
(1.0 ± 0.20) × 10^7 M^−1	-9.6 ± 0.09 kcal/mol	-4.3 ± 0.57 kcal/mol	17.7 ± 1.20 cal mol^−1K^−1	-5.3 ± 0.36 kcal/mol	–	2 kcal/mol	about two-fold	pYVNVP (head to tail) [compound 7]
